Data taken from PMC4391747 (Science translational medicine, 2012).

How the values were obtained:
[1] = Solubility of MIV-150 in ring polymer; type: physicochemical
[2] = rat, in vivo; cited from earlier work

Solubility of MIV-150 in EVA-40 ([1]; DSC): partially soluble
Solubility of MIV-150 in silicone ([1]; DSC of formulated ring segments and release studies with micronized MIV-150): insoluble
SMILES: CCC(=O)c1ccc(F)c([C@@H]2C[C@@H]2NC(=O)Nc2ccc(C#N)cn2)c1O [MIV-150]
Time within which absorbed MIV-150 is cleared [2]: ≤ 12 h
